From patent US20250304578A1, “NITROGEN-CONTAINING FUSED HETEROCYCLIC COMPOUNDS OF N-SULFONAMIDE AND USE THEREOF” (NUTSHELL THERAPEUTICS (SHANGHAI) CO., LTD., priority 2023, published 2025) come the findings set out here.

The target in one data set is CYP2C9 (Homo sapiens (Human), UniProt P11712). The experiment in a line: Inhibitory activity on CYP isoenzymes at a single concentration. It counts as in vitro ADME. As to conditions: pH 7.4, probe diclofenac; final compound concentration 10 μM; human liver microsomes; substrate diclofenac; read-out: Inhibition rate (%) CYP2C9. An excerpt: (§1) The buffer was filtered through a 0.45 μm filter.
CYP2C9, sequence (P11712 whole entry): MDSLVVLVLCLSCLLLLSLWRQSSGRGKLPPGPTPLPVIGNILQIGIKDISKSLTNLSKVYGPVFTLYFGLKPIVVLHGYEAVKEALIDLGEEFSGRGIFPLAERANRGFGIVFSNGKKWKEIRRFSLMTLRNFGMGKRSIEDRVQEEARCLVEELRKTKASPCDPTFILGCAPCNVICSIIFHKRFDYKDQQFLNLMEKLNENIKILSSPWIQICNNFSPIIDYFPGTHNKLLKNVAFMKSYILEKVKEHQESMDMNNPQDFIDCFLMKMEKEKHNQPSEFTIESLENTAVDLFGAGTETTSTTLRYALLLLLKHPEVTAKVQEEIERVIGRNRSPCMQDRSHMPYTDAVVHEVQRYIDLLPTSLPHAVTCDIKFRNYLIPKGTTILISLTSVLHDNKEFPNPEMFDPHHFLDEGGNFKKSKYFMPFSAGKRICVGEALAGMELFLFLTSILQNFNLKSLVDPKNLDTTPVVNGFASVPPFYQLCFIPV
Background: Microsomes from liver hold many membrane-bound enzymes, among them those of drug oxidation.

For a further data set, the target named is CYP2D6 (Homo sapiens (Human), UniProt P10635). The description is as above. It counts as in vitro ADME. As to conditions: pH 7.4, probe dextromethorphan; final compound concentration 10 μM; human liver microsomes; substrate dextromethorphan; read-out: Inhibition rate (%) CYP2D6.
CYP2D6, sequence (P10635 whole entry): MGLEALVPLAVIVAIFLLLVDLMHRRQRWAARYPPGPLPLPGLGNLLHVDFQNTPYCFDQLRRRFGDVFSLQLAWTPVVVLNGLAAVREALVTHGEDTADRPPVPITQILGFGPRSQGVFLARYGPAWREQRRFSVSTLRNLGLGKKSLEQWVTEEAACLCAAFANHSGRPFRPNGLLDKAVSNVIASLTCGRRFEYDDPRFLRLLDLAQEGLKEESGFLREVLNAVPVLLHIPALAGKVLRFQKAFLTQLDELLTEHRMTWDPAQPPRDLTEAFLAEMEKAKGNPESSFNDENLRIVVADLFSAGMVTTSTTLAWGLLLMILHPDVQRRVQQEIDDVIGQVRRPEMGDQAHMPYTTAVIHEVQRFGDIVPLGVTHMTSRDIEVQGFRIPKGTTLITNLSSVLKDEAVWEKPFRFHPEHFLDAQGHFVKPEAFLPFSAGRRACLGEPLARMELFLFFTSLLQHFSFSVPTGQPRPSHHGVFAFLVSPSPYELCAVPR
Excerpt: as §1

Another data set concerns CYP3A4/5. Described as above. Conditions: final compound concentration 10 μM, human liver microsomes. It counts as in vitro ADME.
Excerpt: as §1

Data set [1] in a line: Metabolic stability in liver microsomes. It counts as in vitro ADME. As to conditions: for microsomal CLint at 1 μM: read-out: In vitro Clint (μL/min/mg protein); for half-life at 1 μM: read-out: In vitro t1/2. As to the method: The test compound and the positive control compound (dextromethorphan as a control compound) were dissolved respectively in DMSO to prepare a stock solution with a concentration of 10 mM, and the above stock solution was diluted into 200 μM working solution with DMSO. 8.709 g of potassium hydrogen phosphate (K2HPO4) was dissolved in 950 mL of water, and the pH value of the solution was adjusted to 7.4 with hydrochloric acid, and then the volume was adjusted to 1000 mL with water. After filtration using a 0.22 μm filter membrane, the mixture was stored in a 4° C. refrigerator for later use. After liver microsomes of various species (protein concentration of 20 mg/mL) were thawed in a 37° C. water bath, the liver microsomes were diluted with a phosphate buffer respectively to obtain a liver microsome working solution with protein concentration of 0.629 mg/mL. 5 mM NADPH solution was prepared using the above phosphate buffer for later use. 1 mg/mL stock solution of terfenadine/tolbutamide was prepared with DMSO and then diluted with a 50% methanol/50% acetonitrile mixed solution to a reaction stop solution containing 5/10 ng/mL (terfenadine/tolbutamide) internal standard.
238.5 μL of liver microsome working solutions of various species were added to a 1.1 mL microtube, and 1.5 μL of the test compound working solution or the positive control compound (dextromethorphan) working solution (200 μM) was added respectively, mixed well, and pre-incubated in a 37° C. water bath for 5 minutes. 60 μL of NADPH solution was added to start the reaction, and after mixing well, at the time points of 0, 5, 15, 30, and 60 minutes after the reaction, 30 μL of the reaction mixture was respectively pipetted and added to 300 μL of the reaction stop solution. Samples from all time points were vortexed vigorously for 1 minute and centrifuged at 4000 rpm for 15 minutes at 4° C. 100 μL of the supernatant was added to 100 μL of pure water and mixed well for LC-MS/MS analysis.
The slope (ke) was determined by plotting the natural logarithm of the percentage of compound remaining against time, and the Tin and intrinsic clearance (CLint) were calculated based on the first-order kinetic formula: […]
The compound remaining rate is calculated as follows:
Intrinsic clearance CLint (μL/min/mg protein)=0.693*1000/T1/2/protein concentration (0.5 mg protein/mL)

The target of another data set is CYP2C19 (Homo sapiens (Human), UniProt P33261). Description: Inhibitory activity on CYP isoenzymes at a single concentration. It counts as in vitro ADME. As to conditions: pH 7.4, probe mephenytoin; final compound concentration 10 μM; human liver microsomes; substrate mephenytoin; NI: no inhibition; read-out: Inhibition rate (%) CYP2C19.
CYP2C19, sequence (P33261 whole entry): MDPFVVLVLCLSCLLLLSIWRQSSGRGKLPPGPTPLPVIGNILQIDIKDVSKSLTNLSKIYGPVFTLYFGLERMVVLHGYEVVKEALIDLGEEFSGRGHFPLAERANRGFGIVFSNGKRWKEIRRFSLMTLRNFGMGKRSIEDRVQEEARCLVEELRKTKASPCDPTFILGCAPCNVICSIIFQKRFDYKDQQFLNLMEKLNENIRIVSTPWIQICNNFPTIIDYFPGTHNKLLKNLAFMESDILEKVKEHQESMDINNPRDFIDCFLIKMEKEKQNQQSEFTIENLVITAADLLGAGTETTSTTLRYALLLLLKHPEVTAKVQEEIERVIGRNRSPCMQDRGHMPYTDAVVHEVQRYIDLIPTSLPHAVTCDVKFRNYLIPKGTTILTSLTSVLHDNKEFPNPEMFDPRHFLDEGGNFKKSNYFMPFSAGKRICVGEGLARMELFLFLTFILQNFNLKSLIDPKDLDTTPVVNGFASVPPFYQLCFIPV
Excerpt: as §1

A short description of data set [2]: In vivo pharmacokinetic study in mice. Conditions: male, mouse, plasma, CD-1 mice. As to the method:
(§2) Intravenous injection: 40% HP-β-CD in water; intragastric administration: 0.2% HPC+0.5% Tween80 in water.
6 male mice. Fasting treatment was performed in the evening before the administration, with free access to water. During the experiment, the mice were allowed to eat and drink freely, and administered by intravenous injection or gavage. After administration, the animal status was observed, and abnormal behaviors were recorded. Blood was collected from the orbit at 0.0833, 0.25, 1, 2, 4, 8, and 24 hours after intravenous injection, and at 0.25, 0.5, 1, 2, 4, 6, 8, and 24 hours after intragastric administration. 20 μL of plasma sample was taken and added with 250 μL of acetonitrile (containing dexamethasone as an internal standard) to precipitate proteins. The mixture was centrifuged at 4° C. and 4000 rpm for 20 minutes, and 180 μL of the supernatant was taken and mixed with 180 μL of an aqueous solution containing 0.1% formic acid in a 96-well plate. Then, 10 μL of the sample was taken for LC-MS/MS detection.
(§3) The standard curve was established using the internal standard method, with the theoretical standard curve concentration as the X-axis and the peak area ratio as the Y-axis (peak area of the test compound/peak area of internal standard). Linear regression method (weighting factor 1/X2) was used, R^2>0.9900. Unknown samples were calculated by the standard curve. Pharmacokinetic parameters were calculated by the non-compartmental analysis model of WinNonlin 8.2 software and were presented in a report, including Clint, Cmax, AUC, etc.

Data set [3] can be described thus: In vivo pharmacokinetic study in rats. Conditions: male, rat, plasma, SD rats. As to the method: as §2
6 male rats. Fasting treatment was performed in the evening before the administration, with free access to water. During the experiment, the rats were allowed to eat and drink freely, and administered by intravenous injection or gavage. After administration, the animal status was observed, and abnormal behaviors were recorded. Blood was collected via jugular vein puncture at 0.0833, 0.25, 1, 2, 4, 8, and 24 hours after intravenous injection; Blood was collected via jugular vein puncture at 0.25, 0.5, 1, 2, 4, 6, 8, and 24 hours after intragastric administration. 50 μL of plasma sample was taken and added with 500 μL of acetonitrile (containing dexamethasone as an internal standard) to precipitate proteins. The mixture was centrifuged at 4° C. and 4000 rpm for 20 minutes, and 300 μL of the supernatant was taken and mixed with 300 μL of Watsons aqueous solution in a 96-well plate. Then, 5 μL of the sample was taken for LC-MS/MS detection.
as §3

Setting [4] is: pH 7.4, probe midazolam, substrate midazolam, read-out: Inhibition rate (%) CYP3A4/5 (Midazolam).
The mark [5] stands for this setting: ICR/CD-1, pH 7.4, Mouse liver microsomes.
[6] abbreviates: Sprague Dawley, pH 7.4, Rat liver microsomes.

Where two headings read alike, the source gives them in different places.

Consider `COc1nc(C(=O)NS(C)(=O)=O)ccc1NCC#Cc1cc2c(N[C@@H]3CCN(C)C[C@@H]3F)cccn2c1CC(F)(F)F` [Cpd-1, 5-((3-(8-(((3S,4R)-3-Fluoro-1-methylpiperidin-4-yl)amino)-3-(2,2,2-trifluoroethyl)indolizin-2-yl)prop-2-yn-1-yl)amino)-6-methoxy-N-(methylsulfonyl)picolinamide], for which the inhibition at 10 min, 10 µM at CYP2C9 was 6.7%; on CYP2D6 it was 1.6%; in the data set on CYP3A4/5 (setting [4]) it was 9.8%; in the data set on CYP3A4/5 (pH 7.4, probe testosterone, substrate testosterone, NI: no inhibition, read-out: Inhibition rate (%) CYP3A4/5 (Testosterone)), 3.7%. Besides, the microsomal CLint at 1 μM worked out at 13.7 µL/min/mg in data set [1] (setting [5]); 35 µL/min/mg in data set [1] (setting [6]); 7.3 µL/min/mg in data set [1] (pH 7.4, Human liver microsomes). Moreover, the half-life at 1 μM in data set [1] (setting [5]) was 1.2 h; in data set [1] (setting [6]) it was 0.467 h; in data set [1] (pH 7.4, Human liver microsomes), 2.27 h.
What is called AUC(0-t) is exposure summed from dosing to a finite time, without extrapolation to infinity. A higher AUC(0-t) goes with more exposure. Broadly, the Cmax is the peak of the concentration-time curve. As for `[2H]C([2H])([2H])Oc1nc(C(=O)NS(C)(=O)=O)ccc1NCC#Cc1cc2c(N[C@@H]3CCN(C)C[C@@H]3F)cccn2c1CC(F)(F)F` [Cpd-2, 5-((3-(8-(((3S,4R)-3-Fluoro-1-methylpiperidin-4-yl)amino)-3-(2,2,2-trifluoroethyl)indolizin-2-yl)prop-2-yn-1-yl)amino)-6-(methoxy-d3)-N-(methylsulfonyl)picolinamide], the inhibition at 10 min, 10 µM came to 8.4% on CYP2C19, 8.9% at CYP2C9, 7.2% at CYP2D6 and 8.7% with CYP3A4/5 (setting [4]). The microsomal CLint at 1 μM in data set [1] (setting [5]) is 12.6 µL/min/mg; in data set [1] (setting [6]) it was 11.7 µL/min/mg; in data set [1] (pH 7.4, Human liver microsomes), less than 5.4 µL/min/mg. Further, the half-life at 1 μM in data set [1] (setting [5]) is 1.83 h; in data set [1] (setting [6]), 1.98 h; in data set [1] (pH 7.4, Human liver microsomes), greater than 4.27 h. For the same compound, the exposure AUC(0-t) in data set [2] (IV 1 mg/kg) amounted to 1.7 µM·h; in data set [2] (PO 10 mg/kg) it was 15.7 µM·h; in data set [3] (IV 1 mg/kg) it was 8.4 µM·h; in data set [3] (PO 10 mg/kg) it was 58.4 µM·h. The Cmax in data set [2] (PO 10 mg/kg) turned out to be 5.9 µM; in data set [3] (PO 10 mg/kg), 8.9 µM.
